Tests used:
[1] = Evaluated for the PHA (phytohemagglutininin A) induced proliferation of human peripheral lymphocytes at a dose of 100 ug/ml; assay type: functional
[2] = Evaluated for the PHA (phytohemagglutininin A) induced proliferation of human peripheral lymphocytes at a dose of 25 ug/ml; assay type: functional
[3] = Evaluated for the PHA (phytohemagglutininin A) induced proliferation of human peripheral lymphocytes at a dose of 50 ug/ml; assay type: functional
[4] = Evaluated for the PHA (phytohemagglutininin A) induced proliferation of human peripheral lymphocytes at a dose of 10 ug/ml; assay type: functional
[5] = Evaluated for the PHA (phytohemagglutininin A) induced proliferation of human peripheral lymphocytes at a dose of 5 ug/ml; assay type: functional
Leishmania major [6] = test: Antiparasitic activity was estimated by ability to inhibit the in vitro growth of Leishmania major measured by the decreased uptake of [3H]thymidine at 10 ug/mL; assay type: functional
Leishmania major [7] = test: Antiparasitic activity was estimated by ability to inhibit the in vitro growth of Leishmania major measured by the decreased uptake of [3H]thymidine at 100 ug/mL; assay type: functional
Leishmania major [8] = test: Antiparasitic activity was estimated by ability to inhibit the in vitro growth of Leishmania major measured by the decreased uptake of [3H]thymidine at 25 ug/mL; assay type: functional
Leishmania major [9] = test: Antiparasitic activity was estimated by ability to inhibit the in vitro growth of Leishmania major measured by the decreased uptake of [3H]thymidine at 5 ug/mL; assay type: functional
Leishmania major [10] = test: Antiparasitic activity was estimated by ability to inhibit the in vitro growth of Leishmania major measured by the decreased uptake of [3H]thymidine at 50 ug/mL; assay type: functional
Leishmania donovani [11] = test: Inhibition of [3H]thymidine uptake in amastigotes of Leishmania donovani in infected human peripheral blood monocyte derived macrophages at a dose of 0.5 ug/ml; assay type: functional
Leishmania donovani [12] = test: Inhibition of [3H]thymidine uptake in amastigotes of Leishmania donovani in infected human peripheral blood monocyte derived macrophages at a dose of 1 ug/ml; assay type: functional
Leishmania donovani [13] = test: Inhibition of [3H]-thymidine uptake in amastigotes of Leishmania donovani in infected human peripheral blood monocyte derived macrophages at a dose of 10 ug/ml; assay type: functional
Leishmania donovani [14] = test: Inhibition of [3H]thymidine uptake in amastigotes of Leishmania donovani in infected human peripheral blood monocyte derived macrophages at a dose of 5 ug/ml; assay type: functional
[15] = Evaluated for the PHA (phytohemagglutininin A) induced proliferation of human peripheral lymphocytes at a dose of 1 ug/ml; assay type: functional
[16] = Evaluated for the PHA (phytohemagglutininin A) induced proliferation of human peripheral lymphocytes at a dose of 20 ug/ml; assay type: functional
Leishmania major [17] = test: Antiparasitic activity was estimated by ability to inhibit the in vitro growth of Leishmania major measured by the decreased uptake of [3H]thymidine at 1 ug/mL; assay type: functional
Leishmania major [18] = test: Antiparasitic activity was estimated by ability to inhibit the in vitro growth of Leishmania major measured by the decreased uptake of [3H]-thymidine at 20 ug/mL; assay type: functional
Leishmania major [19] = test: Compound was tested for its ability to inhibit the growth of Leishmania major at a dose of 10 ug/ml; assay type: functional, organism-based
Leishmania major [20] = test: Compound was tested for its ability to inhibit the growth of Leishmania major at a dose of 100 ug/ml; assay type: functional, organism-based
Leishmania major [21] = test: Compound was tested for its ability to inhibit the growth of Leishmania major at a dose of 1 ug/ml; assay type: functional, organism-based

Compound: COc1cc(O)ccc1/C=C/C(=O)c1ccc(O)cc1 [ECHINATIN]
- inhibition at 100 µg/mL [1]: 26.4%
- inhibition at 25 µg/mL [2]: 10.4%
- inhibition at 50 µg/mL [3]: 18%
- inhibition at 10 µg/mL [4]: 9.2%
- inhibition at 5 µg/mL [5]: 7.8%
- inhibition at 10 µg/mL (Leishmania major [6]): 30%
- inhibition at 100 µg/mL (Leishmania major [7]): 86.8%
- inhibition at 25 µg/mL (Leishmania major [8]): 50.3%
- inhibition at 5 µg/mL (Leishmania major [9]): 16.4%
- inhibition at 50 µg/mL (Leishmania major [10]): 69.3%
- inhibition at 0.5 µg/mL (Leishmania donovani [11]): 57%
- inhibition at 1 µg/mL (Leishmania donovani [12]): 62%
- inhibition at 10 µg/mL (Leishmania donovani [13]): 94%
- inhibition at 5 µg/mL (Leishmania donovani [14]): 92%

Compound: COc1c(/C=C/C(=O)c2ccc(O)cc2)ccc(O)c1CC=C(C)C
- inhibition at 1 µg/mL [15]: 5.5%
- inhibition at 10 µg/mL [4]: 30.4%
- inhibition at 20 µg/mL [16]: 73.2%
- inhibition at 5 µg/mL [5]: 14.8%
- inhibition at 1 µg/mL (Leishmania major [17]): 3.9%
- inhibition at 10 µg/mL (Leishmania major [6]): 51.5%
- inhibition at 20 µg/mL (Leishmania major [18]): 93.8%
- inhibition at 5 µg/mL (Leishmania major [9]): 20.7%

Compound: C=CC(C)(C)c1cc(/C=C/C(=O)c2ccc(O)cc2)c(OC)cc1O [LICOAGROCHACONE A]
- inhibition at 1 µg/mL [15]: 4.7%
- inhibition at 10 µg/mL [4]: 39.7%
- inhibition at 20 µg/mL [16]: 65.3%
- inhibition at 5 µg/mL [5]: 20.8%
- inhibition at 1 µg/mL (Leishmania major [17]): 3.6%
- inhibition at 10 µg/mL (Leishmania major [6]): 91.9%
- inhibition at 20 µg/mL (Leishmania major [18]): 96%
- inhibition at 5 µg/mL (Leishmania major [9]): 63.9%

Compound: Pentostam
- inhibition (Leishmania major [19]): 35%
- inhibition (Leishmania major [20]): 95%
- inhibition (Leishmania major [21]): 18%

Reference: ChEMBL document CHEMBL1128838, “Synthesis of antiparasitic licorice chalcones” (1995)
